Test results taken from ChEMBL document CHEMBL3868623, “Difluorocyclobutylacetylenes as positive allosteric modulators of mGluR5 with reduced bioactivation potential” (Bioorg Med Chem Lett, 2016).

Experiments:
in vitro [1] = details: mouse, liver microsomes
in vitro [2] = details: human, liver microsomes

| SMILES | remaining at 10 min (in vitro [1]) [%] | remaining at 10 min (in vitro [2]) [%] |
| --- | --- | --- |
| O=C1N[C@H](c2cncc(C#CC3CC3)c2)[C@@H](c2cccc(F)c2)O1 | 69 | 81 |
| O=C1N[C@H](c2cncc(C#C[C@H]3C[C@@H](O)C3)c2)[C@@H](c2cccc(F)c2)O1 | 51 | 100 |
| O=C1N[C@H](c2cncc(C#C[C@H]3C[C@H](F)C3)c2)[C@@H](c2cccc(F)c2)O1 | 37 | 81 |
| O=C1N[C@H](c2cncc(C#CC3CCOC3)c2)[C@@H](c2cccc(F)c2)O1 (stereo not given in full) | 63 | 93 |
| O=C1N[C@H](c2cncc(C#Cc3ccccc3)c2)[C@@H](c2cccc(F)c2)O1 | 71 | 76 |
| O=C1N[C@H](c2cncc(C#C[C@H]3C[C@@H](F)C3)c2)[C@@H](c2cccc(F)c2)O1 | 57 | 83 |
| O=C1N[C@H](c2cncc(C#CC3CC(F)(F)C3)c2)[C@@H](c2ccc(F)cc2F)O1 | 84 | 100 |
| C[C@]1(O)C[C@@H](C#Cc2cncc([C@H]3NC(=O)O[C@@H]3c3cccc(F)c3)c2)C1 | 81 | 95 |
| C[C@]1(O)C[C@H](C#Cc2cncc([C@H]3NC(=O)O[C@@H]3c3cccc(F)c3)c2)C1 | 78 | 88 |
| O=C1N[C@H](c2cncc(C#C[C@H]3C[C@H](O)C3)c2)[C@@H](c2cccc(F)c2)O1 | 74 | 100 |
